Laboratory results as given in patent US8344158B2, “Fluorescent polymethine cyanine dyes” (Washington University, priority 2007, dated 2013).

Assays:
[1] = UV-Vis absorption spectroscopy; type: physicochemical; settings: for ε / λmax: in 25% aqueous DMSO
Procedure: UV-Vis and Fluorescent Spectroscopic Analysis. Stock solutions (3.0 mM) of the dye and its conjugates were prepared by dissolving them in DMSO. […] The molar extinction coefficient was obtained using Beer's law at 0.1-0.6 μM concentration of the dye. […]

[2] = Fluorescence spectroscopy (emission, relative quantum yield, brightness); type: physicochemical; settings: for ΦF, relative fluorescence quantum yield: MeOH, ICG as standard; for λmax, em: in methanol (Table 1); for ΦB, relative brightness referenced to ICG: product of quantum yield and molar absorptivity, ICG = 1
Procedure: UV-Vis and Fluorescent Spectroscopic Analysis. Stock solutions (3.0 mM) of the dye and its conjugates were prepared by dissolving them in DMSO. […] The molar extinction coefficient was obtained using Beer's law at 0.1-0.6 μM concentration of the dye. The relative fluorescence quantum yield was determined using the equation: ΦF(x)=(As/Ax)(Fx/Fs)(nx/ns)^2ΦF(s)
where ΦF(X) is the fluorescence quantum yield, A is the absorbance, F is the area under the emission curve, n is the refractive index of the solvents used in measurement, and the subscripts s and x represent the standard and unknown, respectively. Indocyanine green (ICG) was used as a reference standard.

CC1(C)C(=CC=C2CCCC(C=CC3=[N+](CCCS(=O)(=O)[O-])c4ccc5ccccc5c4C3(C)C)=C2c2ccc(C(=O)O)cc2)N(CCCS(=O)(=O)[O-])c2ccc3ccccc3c21.[Na+] [Dye 2a]
λmax, abs [1]: 800 nm
ε [1]: 240 000 M^−1 cm^−1
λmax [1]: 800 nm
ΦF, relative fluorescence quantum yield [2]: 0.088
λmax, em [2]: 811 nm
ΦB, relative brightness referenced to ICG [2]: 1.3

CC1(C)C(/C=C/C=C/C=C/C=C2\N(CCCCS(=O)(=O)O)c3ccc4ccccc4c3C2(C)C)=[N+](CCCCS(=O)(=O)[O-])c2ccc3ccccc3c21 [ICG, indocyanine green, reference compound]
ε (molar absorptivity) [1]: 204000 M⁻¹ cm⁻¹
λmax, abs [1]: 785 nm
λmax, em [2]: 807 nm
ΦB, relative brightness referenced to ICG [2]: 1

CC1(C)C(=CC=C2CCCC(C=CC3=[N+](CCCCS(=O)(=O)[O-])c4ccc5ccccc5c4C3(C)C)=C2c2ccc(C(=O)O)cc2)N(CCCCS(=O)(=O)[O-])c2ccc3ccccc3c21.[Na+] [Dye 2b]
λmax, abs [1]: 800 nm
ε [1]: 240 000 M^−1 cm^−1
λmax [1]: 800 nm
ΦF, relative fluorescence quantum yield [2]: 0.092
λmax, em [2]: 811 nm
ΦB, relative brightness referenced to ICG [2]: 1.4

CC1(C)C(=CC=C2CCCC(C=CC3=[N+](CCCCS(=O)(=O)[O-])c4ccc(S(=O)(=O)[O-])cc4C3(C)C)=C2c2ccc(C(=O)O)cc2)N(CCCCS(=O)(=O)[O-])c2ccc(S(=O)(=O)[O-])cc21.[Na+].[Na+].[Na+] [Dye 2c]
λmax, abs [1]: 770 nm
ε [1]: 220 000 M^−1 cm^−1
λmax [1]: 770 nm
ΦF, relative fluorescence quantum yield [2]: 0.10
λmax, em [2]: 785 nm
ΦB, relative brightness referenced to ICG [2]: 1.4
